Reference: PubChem BioAssay (NCI)
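The compound was tested at five concentrations on cells cultured in 96-well plates, with a 48-hour exposure period. GI50 is the concentration that inhibits growth by half. TGI marks complete inhibition of growth.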

Columns and labels:
Test in all cases: growth of human tumour cells (NCI), 48 h
RXF 393 renal = tested on: RXF 393 renal
CCRF-CEM leukemia = tested on: CCRF-CEM leukemia
UO-31 renal = tested on: UO-31 renal
LOX IMVI melanoma = tested on: LOX IMVI melanoma
SN12C renal = tested on: SN12C renal
A498 renal = tested on: A498 renal
NCI-H522 lung = tested on: NCI-H522 lung
HOP-62 NSCLC = tested on: HOP-62 NSCLC
EKVX NSCLC = tested on: EKVX NSCLC

With `COc1cc(-c2nn(-c3cccc(NC(=O)c4cccc(C(F)(F)F)c4)c3)cc2-c2ccncc2)ccc1Cl` the GI50 (RXF 393 renal) was 0.812 µM, the TGI (RXF 393 renal) was 3.15 µM and the GI50 (CCRF-CEM leukemia) was 1.45 µM. For the same compound, the TGI (CCRF-CEM leukemia) was > 50 µM, the GI50 (UO-31 renal) was 0.969 µM and the TGI (UO-31 renal) was > 50 µM. The GI50 (LOX IMVI melanoma) was 1.39 µM, the TGI (LOX IMVI melanoma) was > 50 µM and the GI50 (SN12C renal) was 3.31 µM. The TGI (SN12C renal) was > 50 µM, the GI50 (A498 renal) was 0.687 µM and the TGI (A498 renal) was 2.78 µM. The GI50 (NCI-H522 lung) was 1.05 µM and the TGI (NCI-H522 lung) was 3.85 µM.

Work on `O=C(Nc1cccc(C(F)(F)F)c1)Nc1ccc(OCc2nnc(-c3ccccc3)o2)c(F)c1` yielded a GI50 (HOP-62 NSCLC) of 3.4 µM, a TGI (HOP-62 NSCLC) of 18 µM and a GI50 (CCRF-CEM leukemia) of 3.29 µM. It also gave a TGI (CCRF-CEM leukemia) of 54.9 µM, a GI50 (UO-31 renal) of 3.11 µM and a TGI (UO-31 renal) of 21 µM. For the same compound, the GI50 (LOX IMVI melanoma) was 4.58 µM, the TGI (LOX IMVI melanoma) was 25.6 µM and the GI50 (SN12C renal) was 9.36 µM. The TGI (SN12C renal) was 46.1 µM, the GI50 (A498 renal) was 3.38 µM and the TGI (A498 renal) was 25.8 µM.

In the case of `COc1cc(/C=C/C(=O)c2c(-c3ccc(Cl)cc3)nc3sc(C)nn23)cc(OC)c1OC`, the GI50 (HOP-62 NSCLC) is reported as 10.4 µM, the TGI (HOP-62 NSCLC) is reported as > 100 µM and the GI50 (RXF 393 renal) is reported as 17.3 µM. The TGI (RXF 393 renal) was > 100 µM, the GI50 (CCRF-CEM leukemia) was 3.92 µM and the TGI (CCRF-CEM leukemia) was 87.7 µM. For the same compound, the GI50 (UO-31 renal) was 7.27 µM, the TGI (UO-31 renal) was > 100 µM and the GI50 (LOX IMVI melanoma) was 18.4 µM. The TGI (LOX IMVI melanoma) was > 100 µM, the GI50 (SN12C renal) was 53.9 µM and the TGI (SN12C renal) was > 100 µM. The GI50 (A498 renal) was 51.9 µM, the TGI (A498 renal) was > 100 µM and the GI50 (NCI-H522 lung) was 2.94 µM. For the same compound, the TGI (NCI-H522 lung) was 8.8 µM.

`OCCn1c(-c2ccncc2)c(-c2ccc(F)cc2)c2ncccc21` was tested, and the GI50 (HOP-62 NSCLC) was > 25 µM, the TGI (HOP-62 NSCLC) was > 25 µM and the GI50 (RXF 393 renal) was > 25 µM. For the same compound, the TGI (RXF 393 renal) was > 25 µM, the GI50 (CCRF-CEM leukemia) was > 25 µM and the TGI (CCRF-CEM leukemia) was > 25 µM. The GI50 (UO-31 renal) was 12.5 µM, the TGI (UO-31 renal) was > 25 µM and the GI50 (LOX IMVI melanoma) was > 25 µM. The TGI (LOX IMVI melanoma) was > 25 µM, the GI50 (SN12C renal) was > 25 µM and the TGI (SN12C renal) was > 25 µM. For the same compound, the GI50 (A498 renal) was > 20.3 µM, the TGI (A498 renal) was > 25 µM and the GI50 (NCI-H522 lung) was > 25 µM. For the same compound, the TGI (NCI-H522 lung) was > 25 µM.

For `CS(=O)(=O)Nc1ccc(Nc2c3ccccc3nc3cc(Cl)ccc23)cc1`, the GI50 (HOP-62 NSCLC) was 0.958 µM, the TGI (HOP-62 NSCLC) was 18 µM and the GI50 (RXF 393 renal) was 1.77 µM. The TGI (RXF 393 renal) was 10.6 µM, the GI50 (CCRF-CEM leukemia) was 0.317 µM and the TGI (CCRF-CEM leukemia) was 33.7 µM. For the same compound, the GI50 (UO-31 renal) was 0.58 µM, the TGI (UO-31 renal) was 8.96 µM and the GI50 (LOX IMVI melanoma) was 0.406 µM. It also gave a TGI (LOX IMVI melanoma) of 4.79 µM, a GI50 (SN12C renal) of 0.654 µM and a TGI (SN12C renal) of 16.1 µM. The GI50 (A498 renal) was 1.15 µM, the TGI (A498 renal) was 7.22 µM and the GI50 (NCI-H522 lung) was 2.33 µM. It also gave a TGI (NCI-H522 lung) of 15.4 µM.

`C=CCCC1(CCP(=O)(c2ccccc2)c2ccccc2)OCCO1` was tested, and the TGI (HOP-62 NSCLC) was > 100 µM, the TGI (RXF 393 renal) was > 100 µM and the TGI (CCRF-CEM leukemia) was > 100 µM. For the same compound, the TGI (UO-31 renal) was > 100 µM, the TGI (LOX IMVI melanoma) was > 100 µM and the TGI (SN12C renal) was > 100 µM. For the same compound, the TGI (EKVX NSCLC) was > 100 µM and the TGI (NCI-H522 lung) was > 100 µM.

For `Cc1cc2c(=O)cc(-c3ccncc3)oc2c(C(=O)O)c1C`, the TGI (HOP-62 NSCLC) was > 100 µM, the TGI (RXF 393 renal) was > 100 µM and the TGI (CCRF-CEM leukemia) was > 100 µM. For the same compound, the TGI (UO-31 renal) was > 100 µM, the TGI (LOX IMVI melanoma) was > 100 µM and the TGI (SN12C renal) was > 100 µM. The TGI (EKVX NSCLC) was > 100 µM.

For `Cn1c(=O)c(Oc2ccc(F)cc2F)cc2cnc(NC3CCC(O)CC3)nc21` (configuration not stated), the GI50 (HOP-62 NSCLC) was > 25 µM, the TGI (HOP-62 NSCLC) was > 25 µM and the GI50 (RXF 393 renal) was > 25 µM. The TGI (RXF 393 renal) was > 25 µM, the GI50 (CCRF-CEM leukemia) was > 25 µM and the TGI (CCRF-CEM leukemia) was > 25 µM. For the same compound, the GI50 (UO-31 renal) was 12.1 µM, the TGI (UO-31 renal) was > 25 µM and the GI50 (LOX IMVI melanoma) was > 25 µM. The TGI (LOX IMVI melanoma) was > 25 µM, the GI50 (SN12C renal) was > 25 µM and the TGI (SN12C renal) was > 25 µM. For the same compound, the GI50 (A498 renal) was 5.89 µM, the TGI (A498 renal) was > 25 µM and the GI50 (NCI-H522 lung) was > 25 µM. The TGI (NCI-H522 lung) was > 25 µM.

Work on `Oc1ccc(CCNc2nc3ccccc3c3[nH]c4ccccc4c23)cc1` yielded a GI50 (HOP-62 NSCLC) of 1.63 µM, a TGI (HOP-62 NSCLC) of 3.35 µM and a GI50 (RXF 393 renal) of 1.25 µM. It also gave a TGI (RXF 393 renal) of 2.66 µM, a GI50 (SN12C renal) of 1.27 µM and a TGI (SN12C renal) of 2.62 µM. For the same compound, the GI50 (A498 renal) was 11.5 µM, the TGI (A498 renal) was 23.8 µM and the GI50 (EKVX NSCLC) was 1.91 µM. It also gave a TGI (EKVX NSCLC) of 3.95 µM.

`CN(C)C(=O)c1cc2cnc(Nc3ccc(N4CCNCC4)cn3)nc2n1C1CCCC1` showed a GI50 (HOP-62 NSCLC) of 2.09 µM, a TGI (HOP-62 NSCLC) of 58.5 µM and a GI50 (CCRF-CEM leukemia) of 2.92 µM. For the same compound, the TGI (CCRF-CEM leukemia) was > 100 µM, the GI50 (UO-31 renal) was 4.56 µM and the TGI (UO-31 renal) was 62.1 µM. For the same compound, the GI50 (LOX IMVI melanoma) was 4.44 µM, the TGI (LOX IMVI melanoma) was 26.3 µM and the GI50 (SN12C renal) was 13.9 µM. The TGI (SN12C renal) was 93.6 µM, the GI50 (A498 renal) was 11.8 µM and the TGI (A498 renal) was 30.9 µM.

With `CCc1c[nH]c2ncnc(N3CC[C@](N)(CNC(=O)c4ccc(F)cc4F)C3)c12` the GI50 (HOP-62 NSCLC) was 12.8 µM, the TGI (HOP-62 NSCLC) was > 100 µM and the GI50 (RXF 393 renal) was 0.244 µM. The TGI (RXF 393 renal) was 8.02 µM, the GI50 (CCRF-CEM leukemia) was 2.72 µM and the TGI (CCRF-CEM leukemia) was > 91.2 µM. The GI50 (UO-31 renal) was 1.52 µM, the TGI (UO-31 renal) was 47.6 µM and the GI50 (LOX IMVI melanoma) was 26.2 µM. The TGI (LOX IMVI melanoma) was > 100 µM, the GI50 (SN12C renal) was 24.2 µM and the TGI (SN12C renal) was > 100 µM. For the same compound, the GI50 (A498 renal) was 0.245 µM, the TGI (A498 renal) was 1.73 µM and the GI50 (NCI-H522 lung) was 30.1 µM. The TGI (NCI-H522 lung) was > 100 µM.

In the case of `CC(=O)OC1CCC2(C)C(=CCC3C4CC(CN5CC5)C(=O)C4(C)CCC32)C1` (configuration not stated), the GI50 (HOP-62 NSCLC) is reported as 18.8 µM, the TGI (HOP-62 NSCLC) is reported as 33.6 µM and the GI50 (RXF 393 renal) is reported as 9.77 µM. It also gave a TGI (RXF 393 renal) of 24.1 µM, a GI50 (CCRF-CEM leukemia) of 2.79 µM and a TGI (CCRF-CEM leukemia) of 11.4 µM. For the same compound, the GI50 (UO-31 renal) was 2.99 µM, the TGI (UO-31 renal) was 10.4 µM and the GI50 (LOX IMVI melanoma) was 6.58 µM. The TGI (LOX IMVI melanoma) was 18.2 µM, the GI50 (SN12C renal) was 15.4 µM and the TGI (SN12C renal) was 30.4 µM. The GI50 (A498 renal) was 11.4 µM, the TGI (A498 renal) was 24.9 µM and the GI50 (NCI-H522 lung) was 1.52 µM. The TGI (NCI-H522 lung) was 3.26 µM.

With `Brc1ccc2c(c1)-c1ccccc1C1=NCCN12` the GI50 (HOP-62 NSCLC) was 0.962 µM, the TGI (HOP-62 NSCLC) was 8.02 µM and the GI50 (RXF 393 renal) was 1.29 µM. The TGI (RXF 393 renal) was 3.23 µM, the GI50 (CCRF-CEM leukemia) was 1.74 µM and the TGI (CCRF-CEM leukemia) was 4.93 µM. The GI50 (UO-31 renal) was 0.585 µM, the TGI (UO-31 renal) was 3.81 µM and the GI50 (LOX IMVI melanoma) was 0.526 µM. It also gave a TGI (LOX IMVI melanoma) of 10.6 µM, a GI50 (SN12C renal) of 1.13 µM and a TGI (SN12C renal) of 13 µM. It also gave a GI50 (A498 renal) of 0.866 µM, a TGI (A498 renal) of 2.36 µM and a GI50 (NCI-H522 lung) of 0.762 µM. The TGI (NCI-H522 lung) was 2.75 µM.

With `CCCNc1ncnc2c1cnn2C` the TGI (HOP-62 NSCLC) was > 100 µM, the TGI (CCRF-CEM leukemia) was > 100 µM and the TGI (LOX IMVI melanoma) was > 100 µM. The TGI (SN12C renal) was > 100 µM, the TGI (A498 renal) was > 100 µM and the TGI (NCI-H522 lung) was > 100 µM.

With `Cc1cccc2c1Oc1ncccc1C2NC(=O)CN(C)C` (configuration not stated) the TGI (CCRF-CEM leukemia) was > 10 µM, the TGI (UO-31 renal) was > 10 µM and the TGI (LOX IMVI melanoma) was > 10 µM. For the same compound, the TGI (SN12C renal) was > 10 µM, the TGI (EKVX NSCLC) was > 10 µM and the TGI (NCI-H522 lung) was > 10 µM.
